Measurements taken from publication PMC10572522, “A Designed Analog of an Antimicrobial Peptide, Crabrolin, Exhibits Enhanced Anti-Proliferative and In Vivo Antimicrobial Activity” (International Journal of Molecular Sciences, 2023).
Residues, ends and D or L forms follow the SMILES beside them.

Assays:
E. coli (ATCC 8739) = assay: Antimicrobial susceptibility assay (MIC/MBC); type: cell-based, Escherichia coli; conditions: for MIC: MHB, 37 °C, 20 h
Method: (§1) Six bacteria were tested in this experiment to detect the antimicrobial effects of crabrolin and its derivatives, including S. aureus (NCTC 10788), MRSA (NCTC 12493), E. coli (ATCC 8739), K. pneumoniae (ATCC 43816), E. faecium (NTCC-12697), and P. aeruginosa (ATCC 9027). The tested bacteria were cultured in Mueller Hinton broth medium (MHB) with norfloxacin (20 mg/L) as a positive control. All bacteria were incubated at 37 °C overnight and diluted to 5 × 10^5 CFU/mL before treating with the peptides. Stock solutions of 51,200 µM peptides were prepared in phosphate-buffered saline (PBS) and further diluted by a factor of two to 100 µM. Next, 1 µL of each peptide solution was mixed with 99 µL of bacterial subculture in a 96-well plate, and the plate was incubated at 37 °C for 20 h. After culturing, the absorbance of each well in the 96-well plate was analyzed at 550 nm using a Synergy HT plate reader (BioliseBioTek, Winooski, VT, USA). […] Starting with the MIC value, 10 µL of the solution from each well was dripped onto Mueller Hinton agar (MHA) plates. The plates were cultured at 37 °C for 20 h. After culturing, the lowest concentration with no colony growth was regarded as the MBC.

[1] = test system: human keratinocyte cell line HaCaT; assay: LDH cell cytotoxicity assay; type: cell-based; conditions: for LDH leakage: 25 μM, 24 h
Method: (§2) A Pierce LDH cytotoxicity assay kit (Thermo Scientific, Waltham, MA, USA) was applied for the LDH assay. An immortalized human microvascular endothelial cell line, HMEC-1, and a human keratinocyte cell line, HaCaT, were used in the LDH assay. A total of 8000 cells were placed in each well of the 96-well tissue culture plate with 100 µL of medium and incubated at 37 °C with 5% CO2 overnight. The cells were cultured with different drug concentrations ranging from 100 µM to 1µM for 24 h. […] of lysis buffer was prepared as the maximum LDH activity control. After incubating at 37 °C with 5% CO2 for 45 min, 50 µL of the sample was transferred into each well medium in a 96-well flat-bottom plate. Then, 50 µL of the reaction mixture was transferred to the wells and mixed. The 96-well plate was cultured for 30 min and protected from light at room temperature. Then, 50 µL of stop solution (supplied in the kit) was added to each well and mixed. The absorbance was detected at 490 nm and 680 nm.

[2] = test system: immortalized human microvascular endothelial cell line HMEC-1; assay: LDH cell cytotoxicity assay; type: cell-based
Method: as §2

[3] = test system: K. pneumoniae (ATCC 43816); assay: Antimicrobial susceptibility assay (MIC/MBC); type: cell-based, Klebsiella pneumoniae; conditions: for MIC: MHB, 37 °C, 20 h
Method: as §1

E. faecium (NTCC 12697) = assay: Antimicrobial susceptibility assay (MIC/MBC); type: cell-based, Enterococcus faecium; conditions: for MIC: MHB, 37 °C, 20 h
Method: as §1

[4] = test system: K. pneumoniae (ATCC 43816) biofilm; type: cell-based, Klebsiella pneumoniae; conditions: for MBIC: biofilm inhibitory rate more than 90%; for MBEC: eradication rate greater than 99.9%
Method: (§3) To measure the antibiofilm activity of crabrolin and its derivatives, four drug-resistant biofilm-forming strains, MRSA (NCTC 12493), K. pneumoniae (ATCC 43816), E. faecium (NTCC-12697), and P. aeruginosa (ATCC 9027), were used in this assay. Tryptic soy broth (TSB) (for the Gram-positive bacteria) and Luria–Bertani broth (LB) (for the Gram-negative bacteria) were used to culture the bacteria.
(§4) The mass of the biofilm in this assay was detected by the crystal violet staining method. First, 100 μL of 5 × 10^5 CFU/mL bacteria was incubated with 1 μL of different peptide solutions (ranging from 51200 μM to 100 μM) for 24 h at 37 °C with 200 rpm shaking. After the biofilm formation, 100 μL of PBS was used to rinse the biofilm twice. Next, 100 µL of methanol was added to fix the biofilm, and the biofilm was then dried. Thereafter, 100 μL of 0.1% crystal violet was added and left to stain for 15 min, and then the excess crystal violet was further rinsed by PBS. After the plate had air-dried, 30% glacial acetic acid was added to each well of the plate, and the plate was shaken for 15 min before the optical density (OD) value was measured at 595 nm using a Synergy HT plate reader. The MBIC value refers to the minimum concentration at which the biofilm inhibitory rate was more than 90%.
(§5) Different from measuring the MBIC value, to determine the MBEC value, 100 μL of the bacteria was first added to 96-well plates. After the biofilm was formed, the biofilm was rinsed with PBS twice to remove the planktonic cells, and then different concentrations of the drugs were added to the biofilm (the same as the MBIC assay). The mixture was incubated at 37 °C with shaking at 200 rpm. After 24 h of incubation, the mass of the biofilm was measured in the same way as the MBIC value, and the minimum concentration at which the eradication rate was greater than 99.9% was considered to be the MBEC value.

[5] = test system: P. aeruginosa (ATCC 9027) biofilm; type: cell-based, Pseudomonas aeruginosa; conditions: for MBIC: biofilm inhibitory rate more than 90%; for MBEC: eradication rate greater than 99.9%
Method: as §3, §4, §5

[6] = test system: P. aeruginosa (ATCC 9027); assay: Antimicrobial susceptibility assay (MIC/MBC); type: cell-based, Pseudomonas aeruginosa; conditions: for MIC: MHB, 37 °C, 20 h
Method: as §1

CC[C@H](C)[C@H](NC(=O)[C@H](CC(C)C)NC(=O)[C@@H]1CCCN1C(=O)[C@H](CC(C)C)NC(=O)[C@@H](N)Cc1ccccc1)C(=O)N[C@@H](CC(C)C)C(=O)N[C@@H](CCCNC(=N)N)C(=O)N[C@@H](CCCCN)C(=O)N[C@H](C(=O)N[C@H](C(=O)N[C@H](C(=O)N[C@@H](C)C(=O)N[C@@H](CC(C)C)C(N)=O)[C@@H](C)O)C(C)C)[C@@H](C)CC [Crabrolin, FLPLILRKIVTAL-NH2] (H-FLPLILRKIVTAL-NH2)
MBC (E. coli (ATCC 8739)): 128 µM
MIC (E. coli (ATCC 8739)): 32 µM
LDH leakage [1]: ~20%
Cytotoxicity (LDH release) ([1]; 100 μM): showed cytotoxicity
Cytotoxicity (LDH release) ([2]; HMEC-1, 100 μM): showed cytotoxicity
MBC [3]: 128 µM
MIC [3]: 64 µM
MBC (E. faecium (NTCC 12697)): 64 µM
MIC (E. faecium (NTCC 12697)): 16 µM
MBIC [4]: >512/>512 µM
MBEC [4]: >512/>512 µM
MBIC [5]: 128 µM
MBEC [5]: 512 µM
MBC [6]: 256 µM
MIC [6]: 128 µM

CC[C@H](C)[C@H](NC(=O)[C@H](CCCNC(=N)N)NC(=O)[C@@H]1CCCN1C(=O)[C@H](CC(C)C)NC(=O)[C@@H](N)Cc1ccccc1)C(=O)N[C@@H](CC(C)C)C(=O)N[C@@H](CCCNC(=N)N)C(=O)N[C@@H](CCCCN)C(=O)N[C@H](C(=O)N[C@H](C(=O)N[C@@H](CCCNC(=N)N)C(=O)N[C@@H](C)C(=O)N[C@@H](CC(C)C)C(N)=O)C(C)C)[C@@H](C)CC [Crabrolin-TR, FLPRILRKIVRAL-NH2] (H-FLPRILRKIVRAL-NH2)
MBC (E. coli (ATCC 8739)): 4 µM
MIC (E. coli (ATCC 8739)): 2 µM
LDH leakage [1]: ~20%
Cytotoxicity (LDH release) ([2]; HMEC-1, 25 μM): cytotoxic
MBC [3]: 8 µM
MIC [3]: 8 µM
MBC (E. faecium (NTCC 12697)): 8 µM
MIC (E. faecium (NTCC 12697)): 4 µM
MBIC [4]: 8 µM
MBEC [4]: 128 µM
MBIC [5]: 8 µM
MBEC [5]: 256 µM
MBC [6]: 8 µM
MIC [6]: 4 µM
